US20170189507A1, “NOVEL PEPTIDES AND COMBINATION OF PEPTIDES FOR USE IN IMMUNOTHERAPY AGAINST VARIOUS CANCERS” (immatics biotechnologies GmbH, priority 2015, published 2017)

Test system: HLA-A*24
Test: MHC binding assay (UV-ligand exchange, beta2m ELISA), HLA-A*24
Design: species or system human
Conditions: MHC class I binding score, peptide exchange yield
Source text: Candidate peptides for T cell based therapies according to the present invention were further tested for their MHC binding capacity (affinity). The individual peptide-MHC complexes were produced by UV-ligand exchange, where a UV-sensitive peptide is cleaved upon UV-irradiation, and exchanged with the peptide of interest as analyzed. Only peptide candidates that can effectively bind and stabilize the peptide-receptive MHC molecules prevent dissociation of the MHC complexes. To determine the yield of the exchange reaction, an ELISA was performed based on the detection of the light chain ([…] of stabilized MHC complexes. The assay was performed as generally described in Rodenko et al. (Rodenko et al., 2006).
96 well MAXISorp plates (NUNC) were coated over night with 2 ug/ml streptavidin in PBS at room temperature, washed 4× and blocked for 1 h at 37° C. in 2% BSA containing blocking buffer. Refolded HLA-A*02:01/MLA-001 monomers served as standards, covering the range of 15-500 ng/ml. Peptide-MHC monomers of the UV-exchange reaction were diluted 100 fold in blocking buffer. Samples were incubated for 1 h at 37° C., washed four times, incubated with 2 ug/ml HRP conjugated anti-β2m for 1 h at 37° C., washed again and detected with TMB solution that is stopped with […]. Absorption was measured at 450 nm. Candidate peptides that show a high exchange yield (preferably higher than 50%, most preferred higher than 75%) are generally preferred for a generation and production of antibodies or fragments thereof, and/or T cell receptors or fragments thereof, as they show sufficient avidity to the MHC molecules and prevent dissociation of the MHC complexes.

Row | Substance | Peptide exchange
1 | 173 (IYSWILDHF; listed as Homo sapiens) [compound 173] | ++++ (>=75% = ++++)
2 | 210 (IYTMIYRNL; listed as Homo sapiens) [compound 210] | ++++ (>=75% = ++++)
3 | 227 (IFLDYEAGTLSF; listed as Homo sapiens) [compound 227] | ++++ (>=75% = ++++)
4 | 202 (VYWDSAGAAHF; listed as Homo sapiens) [compound 202] | ++++ (>=75% = ++++)
5 | 186 (IFPQFLYQF; listed as Homo sapiens) [compound 186] | ++++ (>=75% = ++++)
6 | 274 (AYLHSHALI; listed as Homo sapiens) [compound 274] | ++++ (>=75% = ++++)
7 | 172 (TYTTVPRVAF; listed as Homo sapiens) [compound 172] | ++++ (>=75% = ++++)
8 | 211 (YYLEVGKTLI; listed as Homo sapiens) [compound 211] | ++++ (>=75% = ++++)
9 | 280 (RYPDNLKHLYL; listed as Homo sapiens) [compound 280] | ++++ (>=75% = ++++)
10 | 194 (EFGSLHLEFL; listed as Homo sapiens) [compound 194] | + (<20% = +)
11 | 267 (KYMVYPQTF; listed as Homo sapiens) [compound 267] | ++++ (>=75% = ++++)
12 | 184 (VFQNFPLLF; listed as Homo sapiens) [compound 184] | ++++ (>=75% = ++++)
13 | 177 (VYPWLGALL; listed as Homo sapiens) [compound 177] | ++++ (>=75% = ++++)
14 | 271 (LYHDIFSRL; listed as Homo sapiens) [compound 271] | ++++ (>=75% = ++++)
15 | 277 (VYQGHTALL; listed as Homo sapiens) [compound 277] | ++++ (>=75% = ++++)
16 | 216 (QYSSVFKSL; listed as Homo sapiens) [compound 216] | ++++ (>=75% = ++++)

Row | Substance | Peptide exchange
17 | 272 (QYLQDAYSF; listed as Homo sapiens) [compound 272] | ++++ (>=75% = ++++)
18 | 195 (TYSVSFPMF; listed as Homo sapiens) [compound 195] | ++++ (>=75% = ++++)
19 | 217 (FFPPTRQMGLLF; listed as Homo sapiens) [compound 217] | ++++ (>=75% = ++++)
20 | 179 (MYDSYWRQF; listed as Homo sapiens) [compound 179] | ++++ (>=75% = ++++)
21 | 192 (SYALLTYMI; listed as Homo sapiens) [compound 192] | ++++ (>=75% = ++++)
22 | 166 (YYVESGKLF; listed as Homo sapiens) [compound 166] | ++++ (>=75% = ++++)
23 | 282 (KFVDSTFYL; listed as Homo sapiens) [compound 282] | ++++ (>=75% = ++++)
24 | 278 (RYISDQLFTNF; listed as Homo sapiens) [compound 278] | ++++ (>=75% = ++++)
25 | 161 (IYLVSIPEL; listed as Homo sapiens) [compound 161] | ++++ (>=75% = ++++)
26 | 289 (KYPVEWAKF; listed as Homo sapiens) [compound 289] | ++++ (>=75% = ++++)
27 | 228 (KYTSWYVAL; listed as Homo sapiens) [compound 228] | ++++ (>=75% = ++++)
28 | 193 (RFHPTPLLL; listed as Homo sapiens) [compound 193] | ++++ (>=75% = ++++)
29 | 187 (TYLRDQHFL; listed as Homo sapiens) [compound 187] | ++++ (>=75% = ++++)
30 | 160 (VYTLDIPVL; listed as Homo sapiens) [compound 160] | ++++ (>=75% = ++++)
31 | 181 (LYLDIINLF; listed as Homo sapiens) [compound 181] | ++++ (>=75% = ++++)
32 | 175 (YYEVHKELF; listed as Homo sapiens) [compound 175] | ++++ (>=75% = ++++)
